Experimental data as given in patent publication US20230322785A1, “ADENOSINE A2A AND A2B RECEPTOR DUAL ANTAGONISTS FOR IMMUNO-ONCOLOGY” (Merck Sharp & Dohme LLC, priority 2020, published 2023).

Tests used:
[1] = biological target: T1, human A2A adenosine receptor (Homo sapiens, UniProt P29274); test: A2A binding affinity, Method (A): radioligand filtration binding with [3H]SCH58261; conditions: membranes of HEK293 or CHO cells expressing the human receptor
T1 construct: expressed in transfected cells; host or cells: HEK293 or CHO cells
T1 sequence (P29274 whole entry): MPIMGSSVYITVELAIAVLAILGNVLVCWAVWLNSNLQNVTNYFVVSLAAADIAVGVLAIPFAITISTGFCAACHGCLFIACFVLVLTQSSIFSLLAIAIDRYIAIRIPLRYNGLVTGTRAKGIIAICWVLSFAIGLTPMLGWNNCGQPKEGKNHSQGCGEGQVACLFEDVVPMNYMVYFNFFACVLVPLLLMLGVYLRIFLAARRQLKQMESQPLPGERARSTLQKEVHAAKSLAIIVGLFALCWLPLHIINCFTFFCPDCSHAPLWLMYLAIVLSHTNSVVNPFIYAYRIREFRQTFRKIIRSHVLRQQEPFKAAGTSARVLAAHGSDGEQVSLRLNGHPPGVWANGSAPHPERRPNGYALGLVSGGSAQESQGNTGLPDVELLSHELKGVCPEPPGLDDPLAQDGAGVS
From the text: (§1) Method (A) describes the procedure used to measure A2A binding affinity using radioligand binding. Method (B) describes the procedure used to measure A2A binding affinity using SPA technology. The method used to measure A2B binding affinity is also described below. The method used to determine the A2A IC50 value reported for each compound in the table is indicated next to the reported value. The A2B IC50 value measured using the A2B binding affinity assay is shown in the table next to the compound under the corresponding A2A value.
The A2A receptor affinity binding assay measured the amount of binding of a tritiated ligand with high affinity for the A2A adenosine receptor to membranes made from HEK293 or CHO cells recombinantly expressing the human A2A adenosine receptor, in the presence of varying concentrations of a compound of the invention. The data were generated using either filtration binding or a homogenous scintillation proximity assay (SPA).
Method (A): Measurement of A2A Binding Affinity Using Radioligand Binding
148 µL (5 µg/mL) membranes (Perkin Elmer, Cat. No. RBHA2aM400UA) and 2 µL compounds of the invention to be tested (test compound) were transferred to individual wells of a 96-well polypropylene assay plate and incubated for 15 to 30 min at room temperature. [^3H] SCH58261 ((7-(2-phenylethyl)-5-amino-2-(2-furyl)-pyrazolo-[4,3-e]-1,2,4-triazolo[1,5-c]pyrimidine)) was diluted in assay buffer (50 mM Tris pH 7.4, 10 mM MgCl2, 0.005% Tween20) to a concentration of 4 nM and 50 µL transferred to each well of the assay plate. To define total and non-specific binding, wells containing 1% DMSO and 1 µM ZM241385 (Tocris Bioscience, Cat. No. 1036) respectively, were also included. The assay plate was incubated at room temperature for 60 min with agitation. Using a FilterMate Harvester® (Perkin Elmer), the contents of the assay plate were filtered through a UniFilter-96® PEI coated plate (Perkin Elmer Cat. No. 6005274 or 6005277). Filtering was achieved by aspirating the contents of the assay plate for 5 sec, then washing and aspirating the contents three times with ice-cooled wash buffer (50 mM Tris-HCl pH 7.4, 150 mM NaCl) and allowing the vacuum manifold to dry the plate for 30 sec. The filter plate was incubated for at least 1 h at 55° C. and allowed to dry. The bottom of the filter plate was sealed with backing tape. 40 µL Ultima Gold™ (Perkin Elmer, Cat. No. 6013329) was added to each well of the filter plate and the top of the plate was sealed with TopSeal-A PLUS® clear plate seal (Perkin Elmer, Cat. No. 6050185). The plate was incubated for at least 20 min, and then the amount of radioactivity remaining in each well was determined using a TopCount® (Perkin Elmer) scintillation counter. After normalization to total and non-specific binding, the percent effect at each compound concentration was calculated. The plot of percent effect versus the log of compound concentration was analyzed electronically using a 4-parameter logistic fit based on the Levenberg-Marquardt algorithm to generate IC50 values.

[2] = biological target: T2, human A2B adenosine receptor (Homo sapiens, UniProt P29275); test: A2B binding affinity, radioligand filtration binding assay; conditions: membranes of HEK293 cells expressing human A2B
T2 construct: purchased Perkin Elmer ES-013-C; host or cells: HEK293 cells
T2 sequence (P29275 1-332): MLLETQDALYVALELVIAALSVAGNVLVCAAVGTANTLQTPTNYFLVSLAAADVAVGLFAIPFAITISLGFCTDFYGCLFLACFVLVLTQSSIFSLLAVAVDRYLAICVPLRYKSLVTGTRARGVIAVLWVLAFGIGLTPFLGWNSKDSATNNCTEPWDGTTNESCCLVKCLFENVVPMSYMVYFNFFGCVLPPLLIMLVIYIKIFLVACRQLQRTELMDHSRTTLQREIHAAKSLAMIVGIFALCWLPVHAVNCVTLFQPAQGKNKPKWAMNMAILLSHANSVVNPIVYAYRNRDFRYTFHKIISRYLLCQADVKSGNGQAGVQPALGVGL
From the text: as §1
Measurement of A2B Binding Affinity
The reported affinity of the compounds of the invention for the human A2B adenosine receptor was determined experimentally using a radioligand filtration binding assay. This assay measures the amount of binding of a tritiated proprietary A2B receptor antagonist, in the presence and absence of a compound of the invention, to membranes made from HEK293 cells recombinantly expressing the human A2B adenosine receptor (Perkin Elmer, Cat. No. ES-013-C). […] 148 µL (135 µg/mL) membranes and 2 µL test compounds were transferred to individual wells of a 96-well polypropylene assay plate and incubated for 15 to 30 min at room temperature with agitation. Tritiated radioligand was diluted to a concentration of 14 nM in assay buffer (phosphate buffered saline without Magnesium and Calcium, pH 7.4; GE Healthcare Life Sciences, Cat. No. SH30256.01) and then 50 µL of the solution were transferred to each well of the assay plate. To define total and non-specific binding, wells containing 1% DMSO and 20 µM N-ethylcarboxamidoadenosine (Tocris Bioscience, Cat. No. 1691) respectively, were also included. The wells of the assay plate were incubated at room temperature for 60 min with agitation, then filtered using a FilterMate Harvester® (Perkin Elmer) or similar equipment through a UniFilter-96® PEI coated plate (Perkin Elmer Cat. No. 6005274 or 6005277). Filtering was achieved by aspirating the contents of the assay plate for 5 sec, then washing and aspirating the contents three times with ice-cooled wash buffer (assay buffer supplemented with 0.0025% Brij58) and allowing the vacuum manifold to dry the plate for 30 sec. The filter plate was incubated for at least 1 h at 55° C. and allowed to dry. The bottom of the filter plate was then sealed with backing tape. 40 µL Ultima Gold™ (Perkin Elmer, Cat. No. 6013329) was added to each well of the filter plate and the top of the plate was sealed with TopSeal-A PLUS® clear plate seal (Perkin Elmer, Cat. No. 6050185). The plates were then incubated for at least 20 min, and then the amount of radioactivity remaining in each well was determined using a TopCount® (Perkin Elmer) scintillation counter. After normalization to total and non-specific binding, the percent effect at each compound concentration was calculated. The plot of percent effect versus the log of compound concentration was analyzed electronically using a 4-parameter logistic fit based on the Levenberg-Marquardt algorithm to generate IC50 values.

Row | Compound | IC50 [1] | IC50 ([2]; value given with mark (A)) | IC50 ([2]; value printed with mark (B))
1 | COc1cc(F)cc2c1nc(N)n1nc(CNCc3ccc(C(C)(O)C(F)(F)F)cc3)nc21 (single isomer, unassigned) [Example 11.8A, (S or R)-2-(4-((((5-amino-9-fluoro-7-methoxy-[1,2,4]triazolo[1,5-c]quinazolin-2-yl)methyl)amino)methyl)phenyl)-1,1,1-trifluoropropan-2-ol] | 0.8 nM | 11.3 nM | 
2 | COc1cc(F)cc2c1nc(N)n1nc(CNCc3ccc(C(C)(O)C(F)(F)F)cc3)nc21 (single isomer, unassigned) [Example 11.8B, (R or S)-2-(4-((((5-amino-9-fluoro-7-methoxy-[1,2,4]triazolo[1,5-c]quinazolin-2-yl)methyl)amino)methyl)phenyl)-1,1,1-trifluoropropan-2-ol] | 0.4 nM | 2.9 nM | 
3 | COc1cccc2c1nc(N)n1nc(CNCc3cnn(C)c3)nc21 [Example 11.3, 7-methoxy-2-((((1-methyl-1H-pyrazol-4-yl)methyl)amino)methyl)-[1,2,4]triazolo[1,5-c]quinazolin-5-amine] | 0.1 nM |  | 1040 nM
4 | COc1cc(F)cc2c1nc(N)n1nc(CNCc3ccc(C(C)(C)O)cc3)nc21 [Example 11.4, 2-(4-((((5-amino-9-fluoro-7-methoxy-[1,2,4]triazolo[1,5-c]quinazolin-2-yl)methyl)amino)methyl)phenyl)propan-2-ol] | 0.1 nM |  | 2.9 nM
5 | COc1cc(F)cc2c1nc(N)n1nc(CNCc3ccc(C(O)(C(F)F)C(F)F)cc3)nc21 [Example 11.6, 2-(4-((((5-amino-9-fluoro-7-methoxy-[1,2,4]triazolo[1,5-c]quinazolin-2-yl)methyl)amino)methyl)phenyl)-1,1,3,3-tetrafluoropropan-2-ol] | 0.3 nM | 3.7 nM | 

Next, values leading:

Row | IC50 [1] | IC50 ([2]; value given with mark (A)) | IC50 ([2]; value printed with mark (B)) | Compound
6 | 0.2 nM | 1 nM |  | COc1cc(F)cc2c1nc(N)n1nc(CNCc3ccc(C(O)(C(F)(F)F)C(F)(F)F)cc3)nc21 [Example 11.5, 2-(4-((((5-amino-9-fluoro-7-methoxy-[1,2,4]triazolo[1,5-c]quinazolin-2-yl)methyl)amino)methyl)phenyl)-1,1,1,3,3,3-hexafluoropropan-2-ol]
7 | 2.1 nM | 15.6 nM |  | COc1cc(F)cc2c1nc(N)n1nc(CNCc3ccc(S(N)(=O)=O)cc3)nc21 [Example 11.11, 4-((((5-amino-9-fluoro-7-methoxy-[1,2,4]triazolo[1,5-c]quinazolin-2-yl)methyl)amino)methyl)benzenesulfonamide]
8 | 0.6 nM | 116 nM |  | COc1cccc2c1nc(N)n1nc(CNS(=O)(=O)C3CC3)nc21 [Example 12.2, N-((5-amino-7-methoxy-[1,2,4]triazolo[1,5-c]quinazolin-2-yl)methyl)cyclopropanesulfonamide]
